These results are taken from ChEMBL document CHEMBL4414600, “Discovery of a Furanopyrimidine-Based Epidermal Growth Factor Receptor Inhibitor (DBPR112) as a Clinical Candidate for the Treatment of Non-Small Cell Lung Cancer” (J Med Chem, 2019).

For assay [1], the target named is Epidermal growth factor receptor (Homo sapiens, UniProt P00533).
Description: Inhibition of GST-tagged human EGFR kinase domain (696 to 1022 residues) using poly(Glu, Tyr) 4:1 substrate incubated for 60 mins by kinase-Glo plus luminescent kinase assay
Assay [2] has as its target Epidermal growth factor receptor (Homo sapiens, UniProt P00533, L858R/T790M).
In assay [3] the test system is HCC827. Put plainly: Cytotoxicity in human HCC827 cells assessed as reduction in cell viability incubated for 96 hrs by MTS method. It is filed as functional. Background: Formazan colour is commonly taken as a measure of viable cells.
The test system of assay [4] is NCI-H1975. Put plainly: Cytotoxicity in human NCI-H1975 cells assessed as reduction in cell viability incubated for 96 hrs by MTS method. It is filed as functional.
Assay [5] addresses Epidermal growth factor receptor (Homo sapiens, UniProt P00533, A763-Y764INSFHEA). As to the kind of experiment: Inhibition of GST-tagged human EGFR A763_Y764insFHEA mutant using poly(Glu, Tyr) 4:1 substrate incubated for 120 mins by kinase-Glo plus luminescent kinase assay. In general terms: In Kinase-Glo more light means more ATP remaining.
Assay [6] is described as follows: Inhibition of GST-tagged human EGFR D770GY mutant using poly(Glu, Tyr) 4:1 substrate incubated for 120 mins by kinase-Glo plus luminescent kinase assay.
The target of assay [7] is Epidermal growth factor receptor (Homo sapiens, UniProt P00533, D770-N771INSNPG). Put plainly: Inhibition of GST-tagged human EGFR D770_N771insNPG mutant using poly(Glu, Tyr) 4:1 substrate incubated for 120 mins by kinase-Glo plus luminescent kinase assay.
Epidermal growth factor receptor (Homo sapiens, UniProt P00533, D770-N771INSNPG), sequence (P00533 whole entry, looked up, stated change not applied): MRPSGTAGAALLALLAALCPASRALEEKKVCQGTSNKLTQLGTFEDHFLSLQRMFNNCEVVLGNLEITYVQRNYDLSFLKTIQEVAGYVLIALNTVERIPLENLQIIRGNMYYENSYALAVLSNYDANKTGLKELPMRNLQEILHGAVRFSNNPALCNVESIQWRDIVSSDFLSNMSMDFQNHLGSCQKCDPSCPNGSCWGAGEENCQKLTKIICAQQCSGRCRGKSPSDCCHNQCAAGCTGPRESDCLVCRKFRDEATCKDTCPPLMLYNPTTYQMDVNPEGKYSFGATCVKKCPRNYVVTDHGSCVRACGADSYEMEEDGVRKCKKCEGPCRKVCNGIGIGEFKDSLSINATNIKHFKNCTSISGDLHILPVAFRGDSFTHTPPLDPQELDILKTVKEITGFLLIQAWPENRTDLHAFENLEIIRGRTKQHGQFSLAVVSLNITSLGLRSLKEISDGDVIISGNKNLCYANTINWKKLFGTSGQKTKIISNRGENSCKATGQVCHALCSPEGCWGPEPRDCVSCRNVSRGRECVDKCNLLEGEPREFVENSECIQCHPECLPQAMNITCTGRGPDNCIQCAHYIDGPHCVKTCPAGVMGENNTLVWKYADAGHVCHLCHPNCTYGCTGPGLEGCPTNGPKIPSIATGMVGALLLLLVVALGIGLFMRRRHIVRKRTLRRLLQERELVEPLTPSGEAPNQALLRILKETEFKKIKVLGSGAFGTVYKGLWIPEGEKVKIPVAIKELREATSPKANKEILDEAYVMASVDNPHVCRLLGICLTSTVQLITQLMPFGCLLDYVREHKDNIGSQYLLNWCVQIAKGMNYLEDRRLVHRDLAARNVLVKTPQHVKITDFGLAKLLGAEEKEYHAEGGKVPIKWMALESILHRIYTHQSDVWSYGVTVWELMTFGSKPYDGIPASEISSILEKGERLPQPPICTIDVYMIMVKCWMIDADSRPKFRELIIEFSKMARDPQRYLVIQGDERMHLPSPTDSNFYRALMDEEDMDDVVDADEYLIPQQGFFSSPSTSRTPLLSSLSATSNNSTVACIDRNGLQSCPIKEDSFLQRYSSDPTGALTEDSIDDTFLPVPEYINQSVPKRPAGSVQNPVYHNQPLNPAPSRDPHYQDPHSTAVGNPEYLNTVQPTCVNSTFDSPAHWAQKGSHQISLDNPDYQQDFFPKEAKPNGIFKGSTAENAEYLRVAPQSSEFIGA
Assay [8] can be described thus: Inhibition of GST-tagged human HER2 V777_G778insCG mutant mutant using poly(Glu, Tyr) 4:1 substrate incubated for 120 mins by kinase-Glo plus luminescent kinase assay.
The subject of assay [9] is A-431. As to the kind of experiment: Cytotoxicity in human A431 cells assessed as reduction in cell viability incubated for 96 hrs by MTS method. Particulars: Homo sapiens, A-431, 96 h. The assay is classed as functional.

pIC50: −log10 of the molar value.

Epidermal growth factor receptor (Homo sapiens, UniProt P00533), sequence (P00533 whole entry): as the sequence (P00533 whole entry, looked up, stated change not applied) above
Epidermal growth factor receptor (Homo sapiens, UniProt P00533, L858R/T790M), sequence (P00533 25-1210 T790M/L858R limits assumed): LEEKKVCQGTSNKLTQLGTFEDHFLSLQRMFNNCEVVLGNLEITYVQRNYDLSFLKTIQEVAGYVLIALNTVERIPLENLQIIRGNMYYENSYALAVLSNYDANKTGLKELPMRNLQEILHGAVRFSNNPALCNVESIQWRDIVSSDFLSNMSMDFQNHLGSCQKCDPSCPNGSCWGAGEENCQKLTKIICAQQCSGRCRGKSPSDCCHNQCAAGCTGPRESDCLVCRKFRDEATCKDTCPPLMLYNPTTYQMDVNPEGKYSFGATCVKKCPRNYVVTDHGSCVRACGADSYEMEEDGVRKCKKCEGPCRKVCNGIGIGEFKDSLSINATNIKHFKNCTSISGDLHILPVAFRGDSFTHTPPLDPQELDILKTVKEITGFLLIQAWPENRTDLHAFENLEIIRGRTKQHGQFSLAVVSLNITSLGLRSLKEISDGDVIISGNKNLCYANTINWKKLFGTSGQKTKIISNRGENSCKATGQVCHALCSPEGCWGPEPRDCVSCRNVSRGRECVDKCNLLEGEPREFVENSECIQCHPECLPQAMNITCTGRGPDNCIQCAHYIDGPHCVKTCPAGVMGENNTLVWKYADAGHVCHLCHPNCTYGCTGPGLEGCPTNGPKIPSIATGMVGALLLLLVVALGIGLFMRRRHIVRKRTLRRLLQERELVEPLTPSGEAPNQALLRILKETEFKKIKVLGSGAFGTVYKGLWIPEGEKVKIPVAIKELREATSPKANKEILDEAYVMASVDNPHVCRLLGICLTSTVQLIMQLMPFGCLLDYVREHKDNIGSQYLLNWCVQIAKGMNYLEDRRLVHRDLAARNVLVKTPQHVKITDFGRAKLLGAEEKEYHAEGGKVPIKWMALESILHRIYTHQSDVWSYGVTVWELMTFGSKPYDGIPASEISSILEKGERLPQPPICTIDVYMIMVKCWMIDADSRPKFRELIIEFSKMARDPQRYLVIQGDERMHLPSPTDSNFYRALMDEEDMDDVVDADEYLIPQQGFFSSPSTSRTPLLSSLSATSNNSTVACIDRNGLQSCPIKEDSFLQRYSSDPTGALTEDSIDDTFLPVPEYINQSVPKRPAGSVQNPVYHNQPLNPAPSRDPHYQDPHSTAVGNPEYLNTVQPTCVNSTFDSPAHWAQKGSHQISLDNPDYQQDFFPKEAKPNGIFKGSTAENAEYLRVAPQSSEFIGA
Epidermal growth factor receptor (Homo sapiens, UniProt P00533, A763-Y764INSFHEA), sequence (P00533 whole entry, looked up, stated change not applied): as the sequence (P00533 whole entry, looked up, stated change not applied) above

The pIC50 is −log10 of the IC50, conventionally taken in molar units. As a reminder, the CC50 is the concentration giving 50% cytotoxicity. Regarding `CCN(CC)C/C=C/C(=O)Nc1cccc(-c2c(-c3ccccc3)oc3ncnc(N[C@H](CO)c4ccccc4)c23)c1`, the negative logarithm of the IC50 (pIC50) is 7.85 in assay [1] and 6.88 in assay [2]. The CC50 in [3] (Homo sapiens, HCC827, 96 h) was 62 nM; in assay [4] (Homo sapiens, NCI-H1975, 96 h), 2480 nM.

With `C=CC(=O)Nc1cccc(-c2c(-c3ccccc3)sc3ncnc(N[C@H](CO)c4ccccc4)c23)c1`, the pIC50 in assay [1] is 6.87; in assay [2], 6.19; in [5], 8.94; in [6], 8.32; in assay [7], 7.75; in assay [8], 6.43. In addition, the CC50 is 146 nM in assay [3] (Homo sapiens, HCC827, 96 h); 10700 nM in assay [4] (Homo sapiens, NCI-H1975, 96 h); greater than 20000 nM in assay [9].

On to `C=CC(=O)Nc1cccc(-c2c(-c3ccccc3)oc3ncnc(N[C@H](C)c4ccccc4)c23)c1`, for which the pIC50 was 6.93 in assay [1]; 6.30 in assay [2]; 9.67 in assay [5]; 9.19 in assay [6]; 8.83 in [7]; 8.09 in [8]. Further, the CC50 in assay [3] (Homo sapiens, HCC827, 96 h) was 58 nM; in assay [4] (Homo sapiens, NCI-H1975, 96 h), 4300 nM; in assay [9] it was 449 nM.

In assay [2], `OC[C@@H](Nc1ncnc2oc(-c3ccccc3)c(-c3ccccc3)c12)c1ccccc1` had a negative logarithm of the IC50 (pIC50) of less than 5.00. In assay [3] (Homo sapiens, HCC827, 96 h), the cytotoxic concentration (CC50) came out at 518 nM.

Take `C=CC(=O)Nc1cccc(-c2c(-c3ccccc3)oc3ncnc(N[C@@H](CO)c4ccccc4)c23)c1`: the values for the half-maximal cytotoxic concentration (CC50) in [3] and in assay [4] were 840 nM and 13400 nM, respectively.

For the compound `C=CC(=O)Nc1cccc(-c2noc3ncnc(N[C@H](CO)c4ccccc4)c23)c1`, the negative logarithm of the IC50 (pIC50) in assay [1] is 6.38; in [2] it was 5.33. Moreover, the CC50 in assay [3] (Homo sapiens, HCC827, 96 h) was 105 nM; in [4] (Homo sapiens, NCI-H1975, 96 h) it was greater than 20000 nM.

Turning to `CC#CC(=O)Nc1cccc(-c2c(-c3ccccc3)oc3ncnc(N[C@H](CO)c4ccccc4)c23)c1`, the pIC50 is 7.19 in assay [1] and 5.20 in assay [2]. The 50% cytotoxic concentration (CC50) in assay [3] (Homo sapiens, HCC827, 96 h) was determined as 182 nM; in [4] (Homo sapiens, NCI-H1975, 96 h), 6740 nM.

Consider `CC(C)C/C=C/C(=O)Nc1cccc(-c2c(-c3ccccc3)oc3ncnc(N[C@H](CO)c4ccccc4)c23)c1`, for which the pIC50 in assay [1] and in [2] was less than 5.00 in each case. Moreover, the CC50 in assay [3] (Homo sapiens, HCC827, 96 h) was 679 nM; in assay [4] (Homo sapiens, NCI-H1975, 96 h), greater than 20000 nM.

Regarding `CCOC(=O)/C=C/C(=O)Nc1cccc(-c2c(-c3ccccc3)oc3ncnc(N[C@H](CO)c4ccccc4)c23)c1`, the cytotoxic concentration (CC50) in assay [3] (Homo sapiens, HCC827, 96 h) came out at 516 nM; in [4] (Homo sapiens, NCI-H1975, 96 h), 7010 nM.

With `C=CS(=O)(=O)Nc1cccc(-c2c(-c3ccccc3)oc3ncnc(N[C@H](CO)c4ccccc4)c23)c1`, the negative logarithm of the IC50 (pIC50) in [1] was 5.43; in [2], 5.61. Besides, the 50% cytotoxic concentration (CC50) in assay [3] (Homo sapiens, HCC827, 96 h) was 2710 nM; in [4] (Homo sapiens, NCI-H1975, 96 h), 7240 nM.

In the case of `C/C=C/C(=O)Nc1cccc(-c2c(-c3ccccc3)oc3ncnc(N[C@H](CO)c4ccccc4)c23)c1`, the pIC50 is 6.62 in assay [1] and less than 5.00 in assay [2]. Moreover, the half-maximal cytotoxic concentration (CC50) came to 307 nM in [3] (Homo sapiens, HCC827, 96 h) and 13200 nM in assay [4] (Homo sapiens, NCI-H1975, 96 h).

In the case of `O=C(/C=C/CN1CCOCC1)Nc1cccc(-c2c(-c3ccccc3)oc3ncnc(N[C@H](CO)c4ccccc4)c23)c1`, the pIC50 in [1] was 7.72; in [2] it was 6.55. Moreover, the cytotoxic concentration (CC50) in [3] (Homo sapiens, HCC827, 96 h) came to 17 nM; in assay [4] (Homo sapiens, NCI-H1975, 96 h) it was 2830 nM.

As to `O=C(O)/C=C/C(=O)Nc1cccc(-c2c(-c3ccccc3)oc3ncnc(N[C@H](CO)c4ccccc4)c23)c1`, the pIC50 was 5.51 in assay [1] and less than 5.00 in assay [2]. Besides, the 50% cytotoxic concentration (CC50) was 4120 nM in assay [3] (Homo sapiens, HCC827, 96 h) and greater than 20000 nM in assay [4] (Homo sapiens, NCI-H1975, 96 h).
